According to patent US20090298903A1, “USE OF TETRAMIC ACID DERIVATIVES FOR INSECT CONTROL” (priority 2006, published 2009):

What was measured:
Type in all cases: in vivo
Dasineura pyri = assay: Example 19b): pear trees against Dasineura pyri; conditions: 9 d after treatment 2, larvae in rolled leaves
Description: Fully-grown pear trees cv. “Conference” of crown height approx. 3.5 m are treated, in four replications, against Dasineura pyri. Here, the active substance Example (I-4) is tested as (150 OD) and (240 SC) together with 0.1% a.s. rapeseed oil methyl ester (Mero 733 1R) in a tank mix at the specified application rate against the commercial standard Endosulfan (350 EC) at the specified application rate. The application is carried out with a spray diffuser. Here, the treatment is effected with a water application rate of 1000 l/ha/m crown level. Two applications are carried out at an interval of 7 days.
The test is evaluated 9 days after treatment 2 by scoring the destruction rate of the larvae in the rolled leaves, using the Abbott method.

Lema melanopa = assay: Example 25: winter wheat against Lema melanopa; conditions: 3 days after the last of two treatments (interval 7 days), larvae, Calypso (240 OD) 72, (I-4) (240 SC + 0.2% rapeseed oil methyl ester) 96 g a.s./ha
Description: Plots approx. 25 m^2 in size which are planted with winter wheat cv. “Capfem” are treated, in four replications, against Lema melanopa. The application is carried out with a knapsack sprayer which is operated with pressurized air. Here, the active substance Example (I-4) (240 SC), in a tank mix together with 0.2% a.s. rapeseed oil methyl ester (500 EW) and the commercial standard Calypso (240 OD), is applied at the specified application rates. Two applications are carried out at an interval of 7 days, with a water application rate of 350 l/ha.
The test is evaluated 3 days after the last treatment by scoring the destruction rate of the larvae on the plants.

[1] = tested on: Leptinotarsa decemlineata; assay: Example 23: potatoes against Leptinotarsa decemlineata
Description: Plots approx. 10 m^2 in size which are planted with potatoes “Quarta” are treated, in three replications, against Leptinotarsa decemlineata. The application is carried out with a knapsack sprayer operated with pressurized air. Here, the active substance Example (I-4) (240 SC), in a tank mix together with 0.2% a.s. rapeseed oil methyl ester (500 EW) and the commercial standard Deltamethrin (100 EC), is tested at the specified application rate. The water application rate is 300 l/ha.
The test is evaluated 3, 8 and 20 days after the treatment by scoring the destruction rate of the animals (larvae) on the plants.

[2] = tested on: Frankliniella occidentalis; assay: Example 5: aubergines against Frankliniella occidentalis; conditions: mixed populations on leaves
Description: Plots 6 m^2 in size which are planted with aubergines cv. “Soraya” are treated, in three replications, against Frankliniella occidentalis. The application is effected with a motor-operated knapsack sprayer. Here, the active substances Example (I-4) (240 SC) and Example (I-9) (240 SC), in a tank mix together with 0.1% a.s. rapeseed oil methyl ester (500 EW) and the commercial standard Spinosad (480 SC), are tested at the specified application rates. The water application rate is 1500 l/ha.
The test is evaluated 25, 32 and 39 days after the treatment by scoring the destruction rate of the mixed populations on the leaves.

[3] = tested on: apple capsid bug (Plesiocoris rugicollis); assay: Example 1B: apple trees against apple capsid bug; conditions: 37 d after treatment, larvae on twigs, Deltamethrin (EC 025) 3.75, (I-4) (150 OD) 30 g a.s./ha/m crown level
Description: Apple trees cv. “Holsteiner Cox” which are approximately 14 years old are treated, in 3 replications, against the apple capsid bug (Plesiocoris rugicollis). Here, the active substance Example (I-4) (150 OD) is tested at the specified application rate against the commercial standard Deltamethrin liquid (EC 025) at the specified application rate. The application is carried out with a knapsack sprayer. Here, the treatment is effected with a water application rate of 500 l/ha/m crown level.
The test is evaluated 37 days after the treatment by scoring the destruction of the larvae on the twigs with the aid of the Abbott method.

[4] = tested on: Frankliniella occidentalis; assay: Example 2: bell peppers against Frankliniella occidentalis; conditions: Acrinathrin 60, (I-9) 54, (I-4) 60 g a.s./ha, (I-9)/(I-4) 240 SC + 0.1% rapeseed oil methyl ester
Description: Plots 10 m^2 in size which are planted with bell peppers cv. “Zingaro” are treated, in three replications, against Frankliniella occidentalis. The application is effected with a knapsack sprayer which is operated with pressurized air. Here, the active substances Example (I-9) (240 SC) and Example (I-4) (240 SC), in the form of a tank mix together with 0.1% a.s. rapeseed oil methyl ester (500 EW) and the commercial standard acrinathrin (075 EW), are applied at the specified application rates. Two applications are carried out at an interval of 24 days, with a water application rate of 1000 l/ha.
The test is evaluated 17 and 21 days after treatment 1 and 4 days after treatment 2 by scoring the destruction of the animals (nymphs) on the flowers.

Caliothrips phaseoli = assay: Example 3: courgettes against Caliothrips phaseoli; conditions: 8 d after treatment, nymphs on 5 leaves, Endosulfan (350 EC) 525, (I-4) (240 SC + 0.1% rapeseed oil methyl ester) 72 g a.s./ha
Description: Plots approx. 22 m^2 in size which are planted with courgettes cv. “Italiana negra” are treated, in three replications, against Caliothrips phaseoli. The application is effected with a motor-driven knapsack sprayer. Here, the active substance Example (I-4) (240 SC), in a tank mix together with 0.1% a.s. rapeseed oil methyl ester (500 EW) and the commercial standard endosulfan (350 EC), is tested at the specified application rates. The water application rate is approx. 510 l/ha.
The test is evaluated 8 days after the treatment by scoring the destruction of the animals (nymphs) on 5 leaves.

## CCOC(=O)OC1=C(c2cc(C)ccc2C)C(=O)N[C@]12CC[C@@H](OC)CC2 [Example (I-4)]
Dasineura pyri; (I-4) as 150 OD, 150 g a.s./ha/m crown level
  Efficacy (% Abbott) 9 d: 100 % Abbott
Dasineura pyri; Endosulfan (350 EC) 472.5, (I-4) as 240 SC + Mero (0.1% rapeseed oil methyl ester) 120 g a.s./ha/m crown level
  Efficacy (% Abbott) 9 d: 94.6 % Abbott
Lema melanopa
  Efficacy (% Abbott) 10 d: 82.1 % Abbott
[1]; 3 d after treatment, larvae, Deltamethrin (100 EC) 75, (I-4) (240 SC + 0.2% rapeseed oil methyl ester) 72 g a.s./ha
  Efficacy (% Abbott) 3 d: 53.3 % Abbott
[1]; 8 d after treatment, Deltamethrin 75, (I-4) 72 g a.s./ha
  Efficacy (% Abbott) 8 d: 72.7 % Abbott
[1]; 20 d after treatment, Deltamethrin 75, (I-4) 72 g a.s./ha
  Efficacy (% Abbott) 20 d: 84.4 % Abbott
[2]; 25 d after treatment, Spinosad (480 SC) 0.012, (I-9) 0.0054, (I-4) 0.012 % a.s., 240 SC + 0.1% rapeseed oil methyl ester
  Efficacy (% Abbott) 25 d: 92.1 % Abbott
[2]; 32 d after treatment, Spinosad 0.012, (I-9) 0.0054, (I-4) 0.012 % a.s.
  Efficacy (% Abbott) 32 d: 88.3 % Abbott
[2]; 39 d after treatment, Spinosad 0.012, (I-9) 0.0054, (I-4) 0.012 % a.s.
  Efficacy (% Abbott) 39 d: 89.7 % Abbott
[3]
  Efficacy (%) Abbott 37 d: 96%
[4]; 4 d after treatment 2, nymphs on flowers
  Efficacy (% Abbott) 4 d (2): 80 % Abbott
[4]; 17 d after treatment 1, nymphs on flowers
  Efficacy (% Abbott) 17 d (1): 71 % Abbott
[4]; 21 d after treatment 1, nymphs on flowers
  Efficacy (% Abbott) 21 d (1): 85 % Abbott
Caliothrips phaseoli
  Efficacy (% Abbott) 8 d: 71.3 % Abbott
